Test results: article PMC6632198, “In planta high levels of hydrolysable tannins inhibit peroxidase mediated anthocyanin degradation and maintain abaxially red leaves of Excoecaria Cochinchinensis” (BMC Plant Biology, 2019)

Molecular target: T1, ADE/POD (anthocyanin degradation enzyme/peroxidase), purified Osmanthus POD
T1 construct: major in-gel activity band about 110 kDa on semi-native PAGE
Assay: guaiacol oxidation, absorbance at […] nm
Assay type: biochemical, Osmanthus fragrans
Conditions: guaiacol and H2O2 as substrates, 50 mM phosphate buffer pH 7.0; partially purified enzyme

## O=C(O)c1cc(O)c(O)c(O)c1 [gallic acid]
  IC50: 35.55 μM GAE
